Results on 2 compounds are retold here after US20210252036A1, “METHODS OF TREATING CANCER BY INHIBITING UBIQUITIN CONJUGATING ENZYME E2 K (UBE2K)” (Berg LLC, priority 2018, published 2021).

Like-named read-outs stand apart in the source and are kept apart here.

The test system of assay [1] is SKHEP1 hepatocellular carcinoma cells. The assay can be described thus: Cell number/viability by Cell Titer Fluor after siRNA transfection. The assay is classed as cell-based. Conditions: Homo sapiens, SK-HEP1, doxorubicin 72 h. As for the experimental part: (§1) For initial validation studies, UBE2K was transiently knocked down using an siRNA mediated approach in Miapaca2, HepG2, SKHEP1, Hep3B, MDAMB231, SKBR3, T47D and BT549 cells. A non-targeting (NT) siRNA sequence was used as a control. Samples for confirmation of knock down at transcript and protein level were harvested 24 and 96 h post transfection, and the effect of UBE2K transient knock down was assessed on cell viability/cell number using Cell Titer Fluor at 96 h post transfection. In parallel, the effect of siRNA mediated UBE2K knock down on doxorubicin (cell death causing agent) sensitivity was assessed in the above mentioned cell lines. Cell were exposed to doxorubicin for 72 h beginning 24 h post transfection.

For assay [2], the system named is T47D cells. The description is as above. The class given is cell-based. Conditions: Homo sapiens, doxorubicin 72 h. How it is done:
as §1

Assay [3] has as its system BT549 cells. Described as above. The assay is classed as cell-based. Conditions: Homo sapiens, BT-549, doxorubicin 72 h. How it is done: as §1
Assay [4] addresses T1, UBE2K (Homo sapiens, UniProt P61086).
T1 sequence (P61086 1-200): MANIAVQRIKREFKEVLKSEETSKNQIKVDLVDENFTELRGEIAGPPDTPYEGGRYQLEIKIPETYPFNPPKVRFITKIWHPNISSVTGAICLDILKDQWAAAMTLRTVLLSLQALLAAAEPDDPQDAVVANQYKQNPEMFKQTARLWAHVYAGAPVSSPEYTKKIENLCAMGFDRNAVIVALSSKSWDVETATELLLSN
Particulars: Strickson et al., 2013; cited from earlier work.

Turning to `COc1cccc2c1C(=O)c1c(O)c3c(c(O)c1C2=O)C[C@@](O)(C(=O)CO)C[C@@H]3O[C@H]1C[C@H](N)[C@H](O)[C@H](C)O1` [doxorubicin], the IC50 fell in the range of 10.1 to 13.7 nM in assay [1] (SKHEP1, UBE2K siRNA knockdown, read-out: UBE2K siRNA 95% CI IC50); 8.58 to 11.3 nM in assay [1] (SKHEP1, control siRNA, read-out: Control siRNA 95% CI KSO); 96.1 to 220 nM in assay [2] (UBE2K siRNA knockdown, read-out: UBE2K siRNA 95% CI IC50); 112 to 290 nM in assay [2] (control siRNA, read-out: Control siRNA 95% CI KSO); 91.2 to 243 nM in assay [3] (BT549, UBE2K siRNA knockdown, read-out: UBE2K siRNA 95% CI IC50); 165 to 381 nM in assay [3] (BT549, control siRNA, read-out: Control siRNA 95% CI KSO).

In the case of `Cc1ccc(S(=O)(=O)/C=C/C#N)cc1` [BAY 11-7082, (E)3-[(4-Methylphenyl)sulfonyl]-2-propenenitrile], in assay [4], the “Loading of ubiquitin onto E2 conjugating enzymes such as UBE2K” value is reported as “inhibit the loading of ubiquitin onto E2 conjugating enzymes”.
